Laboratory results as given in patent US20180030091A1, “COLLAGEN-BINDING SYNTHETIC PEPTIDOGLYCANS FOR USE IN VASCULAR INTERVENTION” (Purdue Research Foundation, priority 2010, published 2018).
Where no end group is shown, it is not given here. The star is where a group is joined. Dansyl = CN(C)c1cccc2c(S(=O)(=O)*)cccc12

Legend:
HCA SMCs = experiment: Elastin measurement by Fastin assay; type: cell-based, Human; conditions: gels cultured for 10 days
Procedure: Collagen gels seeded with HCA SMCs were prepared as described in EXAMPLE 25. Differentiation medium was changed every three days and gels were cultured for 10 days. Collagen gels containing no cells were used as a control. Gels were rinsed in 1×PBS overnight to remove serum protein, and gels were tested for elastin content using the Fastin elastin assay per manufacturers protocol (Biocolor, County […].). Briefly, gels were solubilized in 0.25 M oxalic acid by incubating at 100° C. for 1 hr. Elastin was precipitated and samples were then centrifuged at 11,000×g for 10 min. The solubilized collagen supernatant was removed and the elastin pellet was stained by Fastin Dye Reagent for 90 min at room temperature. Samples were centrifuged at 11,000×g for 10 min and unbound dye in the supernatant was removed. Dye from the elastin pellets was released by the Fastin Dye Dissociation Reagent, and 100 μL samples were transferred to a 96-well plate (Costar). Absorbance was measured at 513 nm, and elastin content was calculated from an α-elastin standard curve.

[1] = system: Human platelets on Type I fibrillar collagen; experiment: Inhibition of platelet activation on fibrillar collagen after 24 hour rinse (PF4, NAP2); type: cell-based; conditions: 50 μM, incubated 15 min, rinsed for 24 hours
Procedure: Type I fibrillar collagen from Chronolog was diluted in isotonic glucose to a concentration of 50 μg/mL. 50 μL of collagen solution was added to each well of a high bind 96-well plate. The plate was incubated overnight at 4° C., and then rinsed 3× with 1×PBS. For microplate assays, peptidoglycan was diluted in 1×PBS at concentrations between 0.0001 μM to 100 μM and 50 μL solution was added to the collagen coated wells. DS, peptide, or 1×PBS were also added to collagen coated wells as controls. Treatments were incubated at 37° C. with shaking at 200 rpm for 15 min. Wells were then rinsed of unbound treatment by removing the treatment solution, adding PBS, and shaking the wells for 24 hours. During the 24 hours, PBS solution was changed 3 times.
Human whole blood was collected from healthy volunteers by venipuncture. The first 5 mL of blood was discarded and approximately 20 mL was then collected into citrated glass vacutainers (BD Bioscience). Blood was centrifuged in the glass tube for 20 min at 200 g at 25° C. The top layer of the centrifuged blood, the platelet rich plasma (PRP), was used for platelet experiments.
PRP (50 μL/well) was added to the microplate for 1 hour at room temperature without shaking. After 1 hour of incubation, 45 μL of PRP was removed from each well and added to a microcentrifuge tube containing […] ETP (107 mM EDTA, 12 mM theophylline, and 2.8 mM prostaglandin E1) to inhibit further platelet activation. These tubes were spun at 4° C. for 30 min at 2000 g to pellet the platelets. The supernatant (platelet serum) was collected for ELISA studies to test for the presence of platelet activation markers PF-4 and NAP2. Sandwich ELISAs were utilized in order to detect each protein. The components for both sandwich ELISAs were purchased from R&D Systems and the provided protocols were followed. Platelet serum was diluted 10,000 times in 1% BSA in 1×PBS for values to fall within a linear range.
Platelet activation was measured through release of platelet factor 4 (PF4) and β-thromboglobulin (NAP2). […] Since the high SILY/DS ratio is expected to provide higher binding affinity to the collagen surface due to multiple interactions, peptidoglycans with the higher SILY/DS ratios were prepared.
The number of peptides per DS molecule was further increased to 18 to create the peptidoglycan DS-SILY18, and the concentration of molecule needed to inhibit platelet activation was tested. […] Within solubility limits, the number of peptides can be increased to achieve maximal platelet inhibition as well as to reduce diffusion over time, where a higher level of peptidoglycans on the denuded vessel wall is sustained.

[2] = system: Human coronary artery smooth muscle cells (HCA SMC); experiment: Gel compaction by smooth muscle cells in collagen gels; type: cell-based; conditions: Day 7
Procedure: Human coronary artery smooth muscle cells (HCA SMC) (Cascade Biologics) were cultured in growth medium (Medium 231 supplemented with smooth muscle growth factor). Cells from passage 3 were used for all experiments. Differentiation medium (Medium 231 supplemented with 1% FBS and 1×pen/strep) was used for all experiments unless otherwise noted.
Collagen gels were prepared with each additive as described with the exception that the 1×PBS sample addition was omitted to accommodate the addition of cells in media. After incubating on ice for 30 min, HCA SMCs in differentiation medium were added to the gel solutions to a final concentration of 1×10^6 cells/mL. Gels were formed in quadruplicate in 48-well non-tissue culture treated plates (Costar) for 6 hrs before adding 500 μL/well differentiation medium. Gels were freed from the well edges after 24 hrs. Medium was changed every 2-3 days and images for compaction were taken at the same time points using a Gel Doc System (Bio-Rad). The cross-sectional area of circular gels correlating to degree of compaction was determined using ImageJ software (NIH). Gels containing no cells were used as a negative control and cells in collagen gels absent additive were used as a positive control. By day 10 all gels had compacted to approximately 10% of the original gel area, and differences between additives were small.

collagen [3] = target: T1, collagen (Bos taurus, UniProt P02453+P02465); experiment: Viscoelastic characterization of collagen gels containing Dc13 or DS-Dc13; conditions: varying ratios of collagen to additive
T1 construct: purchased Inamed, Freemont, Calif; (Nutragen)
T1 sequence (P02453 162-1217 limits assumed): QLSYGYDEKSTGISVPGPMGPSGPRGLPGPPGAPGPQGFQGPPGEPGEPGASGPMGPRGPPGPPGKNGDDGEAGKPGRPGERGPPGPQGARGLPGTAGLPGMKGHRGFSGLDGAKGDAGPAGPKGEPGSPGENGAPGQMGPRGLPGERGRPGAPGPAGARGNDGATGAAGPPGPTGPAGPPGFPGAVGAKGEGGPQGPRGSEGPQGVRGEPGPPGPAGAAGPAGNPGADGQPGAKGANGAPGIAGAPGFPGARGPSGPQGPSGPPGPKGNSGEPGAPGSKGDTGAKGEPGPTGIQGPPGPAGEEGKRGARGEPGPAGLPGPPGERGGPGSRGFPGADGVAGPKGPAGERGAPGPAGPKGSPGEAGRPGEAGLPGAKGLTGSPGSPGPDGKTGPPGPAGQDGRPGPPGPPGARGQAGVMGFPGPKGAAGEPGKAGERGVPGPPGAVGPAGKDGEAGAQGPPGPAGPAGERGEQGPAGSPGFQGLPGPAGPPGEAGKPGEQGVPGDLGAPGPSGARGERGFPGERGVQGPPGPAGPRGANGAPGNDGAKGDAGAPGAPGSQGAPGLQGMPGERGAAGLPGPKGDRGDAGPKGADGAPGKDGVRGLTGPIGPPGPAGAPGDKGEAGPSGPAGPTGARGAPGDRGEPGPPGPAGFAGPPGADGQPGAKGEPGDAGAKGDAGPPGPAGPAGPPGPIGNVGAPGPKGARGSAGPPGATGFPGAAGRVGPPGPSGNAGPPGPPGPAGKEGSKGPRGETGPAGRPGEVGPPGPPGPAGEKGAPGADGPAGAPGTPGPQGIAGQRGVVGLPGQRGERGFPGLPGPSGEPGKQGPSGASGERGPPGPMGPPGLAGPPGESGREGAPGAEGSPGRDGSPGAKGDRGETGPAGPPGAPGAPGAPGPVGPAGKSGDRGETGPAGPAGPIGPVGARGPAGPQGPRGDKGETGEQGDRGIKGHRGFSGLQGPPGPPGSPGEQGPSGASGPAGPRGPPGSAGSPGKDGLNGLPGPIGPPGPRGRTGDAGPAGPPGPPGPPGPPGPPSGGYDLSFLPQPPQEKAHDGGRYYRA
T1 sequence (P02465 80-1117 limits assumed): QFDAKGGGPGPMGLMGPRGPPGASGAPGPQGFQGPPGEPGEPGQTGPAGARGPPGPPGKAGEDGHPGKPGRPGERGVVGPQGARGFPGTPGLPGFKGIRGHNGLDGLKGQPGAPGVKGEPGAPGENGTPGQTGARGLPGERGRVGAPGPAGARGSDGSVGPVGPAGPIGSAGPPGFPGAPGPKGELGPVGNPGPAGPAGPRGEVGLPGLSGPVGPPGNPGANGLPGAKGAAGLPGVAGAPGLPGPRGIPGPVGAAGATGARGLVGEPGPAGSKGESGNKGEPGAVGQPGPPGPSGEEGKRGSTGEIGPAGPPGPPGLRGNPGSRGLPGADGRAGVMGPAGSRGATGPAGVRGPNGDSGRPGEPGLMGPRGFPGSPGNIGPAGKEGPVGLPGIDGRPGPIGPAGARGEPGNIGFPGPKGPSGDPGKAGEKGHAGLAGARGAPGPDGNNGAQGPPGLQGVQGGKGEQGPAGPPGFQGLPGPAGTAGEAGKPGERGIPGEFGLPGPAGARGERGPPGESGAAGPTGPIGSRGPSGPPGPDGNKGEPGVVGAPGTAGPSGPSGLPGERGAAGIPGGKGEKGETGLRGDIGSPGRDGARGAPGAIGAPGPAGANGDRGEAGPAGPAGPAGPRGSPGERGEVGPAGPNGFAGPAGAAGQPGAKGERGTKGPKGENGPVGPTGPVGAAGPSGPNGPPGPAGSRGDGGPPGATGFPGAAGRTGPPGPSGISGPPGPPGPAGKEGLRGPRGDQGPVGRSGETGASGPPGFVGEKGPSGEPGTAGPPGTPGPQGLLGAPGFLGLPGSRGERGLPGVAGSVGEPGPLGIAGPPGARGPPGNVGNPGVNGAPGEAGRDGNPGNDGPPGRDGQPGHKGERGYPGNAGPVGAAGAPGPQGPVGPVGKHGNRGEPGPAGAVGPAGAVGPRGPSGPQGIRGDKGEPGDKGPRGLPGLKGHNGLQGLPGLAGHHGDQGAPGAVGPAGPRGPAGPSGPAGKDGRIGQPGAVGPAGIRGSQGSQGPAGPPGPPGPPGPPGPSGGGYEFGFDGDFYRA
Procedure: Collagen gels were prepared, as in EXAMPLE 15. Viscoelastic characterization was performed as described in EXAMPLE 16 on gels formed with varying ratios of collagen to additive (treatment).

Monomeric collagen = target: T2, Monomeric collagen (Bos taurus, UniProt P02453+P02465); experiment: Fluorescence binding of dansyl-labeled DS-peptide conjugates to immobilized collagen; conditions: 100 μM to 10 nM; 30 min at 37° C.
T2 construct: purchased Advanced Biomatrix 5010
T2 sequence (P02453 162-1217 limits assumed): as the sequence (P02453 162-1217 limits assumed) above
T2 sequence (P02465 80-1117 limits assumed): as the sequence (P02465 80-1117 limits assumed) above
Procedure: In order to determine whether the peptide conjugate maintained its ability to bind to collagen after its conjugation to DS, a fluorescent binding assay was performed. A fluorescently labeled version of SILY, Z-SILY, was synthesized by adding dansylglycine to the amine terminus. This peptide was conjugated to DS and purified using the same methods described for SILY.
Binding assays were done in a 96-well high binding plate, black with a clear bottom (Costar). Collagen was compared to untreated wells and BSA coated wells. Monomeric collagen (Advanced Biomatrix Cat. No. 5010) and BSA were immobilized at 37° C. for 1 hr by incubating 90 μL/well at concentrations of 2 mg/mL in 10 mM HCl and 1×PBS respectively. Each well was washed 3× with 1×PBS after incubating.
Wells were preincubated with DS at 37° C. for 30 min to eliminate nonspecific binding of DS to collagen. Wells were rinsed 3× with 1×PBS before incubating with DS-Z-SILY. […] Fluorescence readings were taken on an M5 Spectramax Spectrophotometer (Molecular Devices) at excitation/emission wavelengths of 335 nm/490 nm, respectively.
Fluorescence binding of DS-Z-SILY on immobilized collagen, BSA, and untreated wells are compared in FIG. 7. […]
The fluorescence binding assays described for DS-ZSILY was performed with peptide sequence ZSYIRIADTNITGC (ZDc13) (SEQ ID NO: 30).

[4] = system: Human platelet-rich plasma on fibrillar collagen; experiment: Platelet binding to collagen under flow; type: cell-based; conditions: 50 μM for 15 min; 2 mL/hr for 1 hour, shear rate 355 s^−1
Procedure: To mimic physiologic conditions with flowing blood, platelet binding to collagen surfaces under flow conditions was evaluated. Flow kits were obtained from Ibidi (Munchen, Germany). Each channel was coated with fibrillar collagen (Chronolog). Excess collagen was removed from the flow channel by pushing 1×PBS through the channel with a syringe. DS-SILY18 was incubated in the channel at a concentration of 50 μM for 15 min at 37° C., and unbound peptidoglycan was rinsed by pushing 1×PBS through the channel with a syringe. The control channel consisted of collagen not treated with peptidoglycan.
Platelet rich plasma was pushed through the channels at 2 mL/hr for 1 hour, corresponding to a shear stress of 3.55 dynes/cm^2 and a shear rate of 355 s^−1. Unbound platelets were rinsed from the channel by pushing through 1×PBS. Adhered platelets were fixed in the channel with 10% formaldehyde. Platelets were permeabilized and actin filaments were stained with phalloidin-Alexa Fluor 488 (Invitrogen).

collagen [5] = target: T1, collagen; experiment: Cryo-SEM measurement of fibril density; conditions: 10:1 molar ratio, cryo-SEM 10,000×
Procedure: Collagen gels were formed in the presence of each additive at a 10:1 molar ratio, as described in EXAMPLE 15, directly on the SEM stage, processed, and imaged as described. Images at 10,000× were analyzed for fibril density calculations. Images were converted to 8-bit black and white, and threshold values for each image were determined using ImageJ software (NIH). The threshold was defined as the value where all visible fibrils are white, and all void space is black. The ratio of white to black area was calculated using MatLab software. All measurements were taken in triplicate and thresholds were determined by an observer blinded to the treatment.

collagen [6] = target: T1, collagen; experiment: Collagen fibrillogenesis by turbidity at 313 nm; type: biochemical; conditions: 4 mg/mL collagen, 10:1 collagen:treatment unless otherwise indicated
Procedure: Collagen fibrillogenesis was monitored by measuring turbidity related absorbance at 313 nm providing information on rate of fibrillogenesis and fibril diameter. Gel solutions were prepared as described in EXAMPLE 15 (4 mg/mL collagen, 10:1 collagen:treatment, unless otherwise indicated) and 50 uL/well were added at 4° C. to a 384-well plate. The plate was kept at 4° C. for 4 hours before initiating fibril formation. A SpectraMax M5 at 37° C. was used to measure absorbance at 313 nm at 30 s intervals for 6 hours.
A fibrillogenesis assay as described for DS-SILY, EXAMPLE 17, performed with the conjugate DS-Dc13.

Substance | elastin production (HCA SMCs) | inhibition of platelet activation (release of PF4 and NAP2) [1] | gel compaction, day 7 [2] | stiffness (storage modulus G′) of collagen gel (collagen [3]) | fluorescence binding to collagen versus BSA and untreated wells (Monomeric collagen) | platelets bound to collagen under flow [4] | fibril density (ratio of fibril containing area to void space) (collagen [5]) | fibrillogenesis (absorbance at 313 nm) (collagen [6])
dermatan sulfate [DS] | significantly decreased elastin production over untreated collagen | little to no effect on inhibiting platelet activation | significant compared to collagen | increase the stiffness of the resulting collagen gel over untreated collagen |  |  |  | 
DS-Z-SILY: dermatan sulfate conjugated to Z-SILY (Dansyl-GRRANAALKAGELYKSILYGC-NH2; also: dermatan sulfate conjugate) |  |  |  |  | binds specifically to the collagen-treated wells over BSA and untreated wells |  |  | 
DS-SILY: dermatan sulfate-RRANAALKAGELYKSILYGC conjugate; SILY/DS ratio 1.06 in Example 2, varied ratios in Example 36 (RRANAALKAGELYKSILYGC-NH2; not fully specified (residue 20); also: dermatan sulfate conjugate, SILY/DS ratio 1.06 or varied) | significantly increased elastin production over all samples | able to inhibit collagen mediated platelet activation |  |  |  | significantly fewer bound platelets on the peptidoglycan treated surface | significantly greater fibril density | decreases the rate of fibrillogenesis
